Data set [1] relates to tissue model of the human epidermis prepared from cultured human keratinocytes and melanocytes. Nature of the data set: Ex vivo whitening test in tissue model of the human epidermis. It is filed as cell-based. The note with it: 2% of acetyl-glycine-beta-alanine, 9 day.
Data set [2] concerns age spot. Put plainly: In vivo human study, spot-brightening. The settings on record: after 14 days.
The subject of data set [3] is IL-6. Put plainly: In vitro anti-inflammation study, IL-6 level after UVB exposure. It counts as cell-based. The note with it: human epidermal keratinocytes after exposure on UVB light.
Data set [4] concerns IL8. Nature of the data set: In vitro anti-inflammation study, IL8 level after UVB exposure. It counts as cell-based. The note with it: human epidermal keratinocytes after exposure on UVB light.
The subject of data set [5] is melanin formation. The note with it: taught in U.S. patent application Ser. No. 13/128,446; cited from earlier work.
The conditions of data set [6]: taught in U.S. patent application Ser. No. 13/128,446; cited from earlier work.
Data set [7] can be described thus: Long term storage stability by powder X-ray diffraction. It counts as physicochemical. The note with it: room temperature for 1 year without any humidity controlling. The procedure:
(§1) The procedure of powder X-ray diffraction test used for obtaining FIG. 1, FIG. 2, FIG. 7 and FIG. 8 is described as follows:
(§2) The crystalline polymorphs of acetyl-glycine-beta-alanine was analyzed by an X-ray powder Diffractometer, Bruker D8 Advanced, equipped with a Cu anode (λ=1.540600 Angstrom). X-ray source operated at 40 kV, 40 mA. The measuring 2-theta range was from about 5 to 60 degree and step width was 0.05 degree.
Long term storage stability can be found in both crystalline polymorph A and crystalline polymorph B of acetyl-glycine-beta-alanine. The powder X-ray diffraction pattern of the crystalline polymorph A and crystalline polymorph B are shown as FIG. 1 and FIG. 2, wherein the crystalline polymorph A and crystalline polymorph B were stored at room temperature for 1 year without any humidity controlling.

Data set [8] is described as follows: Thermal stability study by powder X-ray diffraction. It counts as physicochemical. The note with it: 140° C. oven with air circulation for 4 hours. The procedure: as §1, §2
Thermal Stability Study for Both of Crystalline Polymorph A and Crystalline Polymorph B of Acetyl-Glycine-Beta-Alanine:
The crystalline polymorph A of acetyl-glycine-beta-alanine and crystalline polymorph B of acetyl-glycine-beta-alanine were stored at 140° C. oven with air circulation for 4 hours, and then analyzed with powder X-ray diffraction.

A short description of data set [9]: Thermodynamic stable crystalline polymorph study: slurry equilibrium. It is filed as physicochemical. The settings on record: 5 g polymorph A + 5 g polymorph B in isopropanol/water 100 g/10 g; 40 to 45° C. 8 hours, then 25 to 30° C. 48 hours. How it is done:
Thermodynamic Stable Crystalline Polymorph Study: Slurry Equilibrium
Both of 5 grams of crystalline polymorph A and 5 grams of crystalline polymorph B of acetyl-glycine-beta-alanine were put into a flask. 100 grams of isopropanol and 10 grams of water were added into the flask to form a mixture. The mixture was stirred at 40 to 45° C. for 8 hours and then at 25 to 30° C. for 48 hours. The mixture was cooled to 15 to 20° C. and the crystalline was filtered out. The crystalline was dried and analyzed with powder X-ray diffraction and Fourier transform infrared spectrum.

Data set [10] can be described thus: Solubility study in different solvents (HPLC). It counts as physicochemical. The settings on record: for Solubility: room temperature, 30 min. How it is done: The Solubility Study of Crystalline Polymorph A and Polymorph B of Acetyl-Glycine-Beta-Alanine
According to the theory of thermodynamic of polymorphism, the most thermodynamic stable crystalline polymorph has lowest solubility. The solubility of both of the crystalline polymorph A and polymorph B of acetyl-glycine-beta-alanine were measured in different solvents.
The solubility measurement procedure was described as the following. Prepared a saturated acetyl-glycine-beta-alanine solution with 1 gram of test solvents and then stir it for 30 min at room temperature. Collected the solution through a filter and used HPLC to analyze its solubility. The solubility was represented by mg of the polymorphs/grams of the solvent.

[11] abbreviates: Ethanol/water: 95/5 (weight ratio).
The mark [12] stands for this setting: Isopropanol/water: 3/1 (weight ratio).

Turning to `CC(=O)NCC(=O)NCCC(=O)O` [acetyl-glycine-beta-alanine], the “existing melanin level (whitening efficacy)” value in data set [1] is reported as −30%. In addition, the “age spot reduction (spot-brightening)” value in data set [2] was 51.67%. For the same compound, the IL-6 level result in [3] is reported as “reduced”. Moreover, in data set [4], the IL8 level result is reported as “reduced”. Moreover, in data set [5], the inhibiting melanin formation entry is on record as “capable of inhibiting melanin formation”. Moreover, the “color stability in the cosmetic formulation” value in data set [6] is on record as “good color stability”.

Regarding `CC(=O)NCC(=O)NCCC(=O)O` [crystalline polymorph A, acetyl-glycine-beta-alanine], the “long term storage stability (powder X-ray diffraction pattern)” value in [7] is “not changed”. The “thermal stability (powder X-ray diffraction pattern)” value in [8] is on record as “still not changed”. Also, the “crystalline form obtained after slurry equilibrium” value in data set [9] is given as “the obtained crystalline was crystalline polymorph A”. In addition, the Solubility in [10] (setting [11]) came to 18.4 mg/g; in data set [10] (setting [12]), 62.3 mg/g; in [10] (Methanol), 26.5 mg/g; in data set [10] (Water), 177.0 mg/g. In data set [10] (concluded from lower solubility in various solvents), the “thermodynamic stability (from solubility results)” value is “thermodynamically stable”.

In the case of `CC(=O)NCC(=O)NCCC(=O)O` [crystalline polymorph B, acetyl-glycine-beta-alanine], in data set [7], the “long term storage stability (powder X-ray diffraction pattern)” value is “not changed”. Also, the “thermal stability (powder X-ray diffraction pattern)” value in [8] was “changed”. Besides, the Solubility in [10] (setting [11]) worked out at 23.9 mg/g; in [10] (setting [12]), 76.4 mg/g; in data set [10] (Methanol), 32.4 mg/g; in data set [10] (Water), 223.2 mg/g.

(Values after US8927767B2, “Crystalline polymorphs of acetyl-glycine-beta-alanine and process of making the same” (Corum Inc., priority 2013, dated 2015).)
